Like-named read-outs stand apart in the source and are kept apart here. Blank lines part the entries; values can stand above or below the compound they belong to.
Tested on: IL-1β production in PMA-differentiated THP-1 cells
Assay: IL-1β production in PMA-differentiated THP-1 cells stimulated with gramicidin (hTHP-1 assay, 2% fetal bovine serum; Procedures 1-3)
Assay type: cell-based, human
Procedure, shortened: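 PMA-primed THP-1 cells (20 ng/ml PMA, 16-18 h) in RPMI with 2% FBS were pre-incubated with compounds for 1 h, from 100 μM downward in 3-fold steps (0.37% DMSO final), then stimulated with 5 μM gramicidin for 2 h. IL-1β in the supernatant was quantified by HTRF.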

[1] = hTHP-1 assay containing 2% fetal bovine serum, Table B2, class symbols, read-out: IC50
[2] = Homo sapiens, THP-1, hTHP-1 assay containing 2% fetal bovine serum, Table B2, given as bound, read-out: IC50
[3] = Homo sapiens, THP-1, hTHP-1 assay containing 2% fetal bovine serum, Table B2, class symbols, read-out: IC50
[4] = hTHP-1 assay containing 2% fetal bovine serum, Table B2, given as bound, read-out: IC50
[5] = Table B1, hTHP-1 assay containing 2% fetal bovine serum, gramicidin stimulation, IL-1β readout, read-out: hTHP-1 IC50 (average)
[6] = Homo sapiens, THP-1, Table B3, hTHP-1 assay containing 2% fetal bovine serum, gramicidin stimulation, IL-1β readout, read-out: hTHP-1 IC50
[7] = Table B3, hTHP-1 assay containing 2% fetal bovine serum, gramicidin stimulation, IL-1β readout, read-out: hTHP-1 IC50
[8] = Homo sapiens, THP-1, Table B1, hTHP-1 assay containing 2% fetal bovine serum, gramicidin stimulation, IL-1β readout, read-out: hTHP-1 IC50 (average)

SMILES: CC(C)(O)c1nc(CO)c(S(N)(=O)=NC(=O)Nc2c3c(cc4c2CCC4)CCC3)s1 (single isomer, unassigned) [Example 543, (R) or (S)-N′-((1,2,3,5,6,7-hexahydro-s-indacen-4-yl)carbamoyl)-4-(hydroxymethyl)-2-(2-hydroxypropan-2-yl)thiazole-5-sulfonimidamide]
IC50 [1]: 8 to 40 nM

SMILES: C[C@@](O)(CO)c1ncc([S@](N)(=O)=NC(=O)Nc2c3c(cc4c2C(=O)CC4)CCC3)s1 [Compound 920a]
IC50 [2]: > 30000 nM

SMILES: CO[C@H]1COc2c(S(N)(=O)=NC(=O)Nc3c4c(cc5c3CC5)CCC4)cnn2C1 (single isomer, unassigned) [Example 534, (R,6R) or (S,6R)-6-methoxy-N′-((2,4,5,6-tetrahydro-1H-cyclobuta[f]inden-3-yl)carbamoyl)-6,7-dihydro-5H-pyrazolo [5,1-b][1,3]oxazine-3-sulfonimidamide]
IC50 [1]: 8 to 40 nM

SMILES: CC(C)(O)c1cnc(S(N)(=O)=NC(=O)Nc2c3c(cc4c2CCC4=O)CCC3)s1 (centres unmarked) [Example 455, 5-(2-Hydroxypropan-2-yl)-N′-((1-oxo-1,2,3,5,6,7-hexahydro-s-indacen-4-yl)carbamoyl)thiazole-2-sulfonimidamide]
IC50 [1]: 1000 to 5000 nM

SMILES: C[C@@](O)(CO)c1ncc(S(N)(=O)=NC(=O)Nc2c3c(cc4c2C(=O)CC4)CCC3)s1 (some centres unmarked) [Compound 920d]
IC50 [3]: 200 to 1000 nM

SMILES: CC(C)(O)c1ncc(S(N)(=O)=NC(=O)Nc2c3c(cc4c2CCC4)CCC3)s1 (single isomer, unassigned) [Example 6]
IC50 [5]: 8 to 40 nM

SMILES: CN(C)CC(C)(C)c1ccc([S@@](N)(=O)=NC(=O)Nc2c3c(cc4c2CCC4)CCC3)cc1 [Compound 902b]
IC50 [3]: 200 to 1000 nM

SMILES: C[C@@](O)(CO)c1cc(F)c([S@](N)(=O)=NC(=O)Nc2c3c(c(C#N)c4c2CCC4)CCC3)s1 (single isomer, unassigned) [Compound 411a]
IC50 [8]: 40 to 200 nM

SMILES: NS(=O)(=NC(=O)Nc1c2c(cc3c1CCC3)CCC2)c1cnn2c1OC[C@H](O)C2 (stereo partly drawn) [Example 441, (6R)-N′-((1,2,3,5,6,7-hexahydro-s-indacen-4-yl)carbamoyl)-6-hydroxy-6,7-dihydro-5H-pyrazolo[5,1-b][1,3]oxazine-3-sulfonimidamide]
IC50 [3]: 200 to 1000 nM

SMILES: N[S@](=O)(=NC(=O)Nc1c2c(cc3c1CCC3)CCC2)c1ccc(C2CCNC2)cc1F (single isomer, unassigned) [Example 501, (S) or (R)-2-fluoro-N′-((1,2,3,5,6,7-hexahydro-s-indacen-4-yl)carbamoyl)-4-(pyrrolidin-3-yl)benzenesulfonimidamide]
IC50 [3]: 5000 to 30000 nM

SMILES: CC(C)(O)c1nc(CO)c([S@](N)(=O)=NC(=O)Nc2c3c(cc4c2C(=O)CC4)CCC3)s1 [Compound 914b]
IC50 [3]: 1000 to 5000 nM

SMILES: CC(C)(O)c1nc(S(N)(=O)=NC(=O)Nc2c3c(cc4c2CCC4)CCC3)cs1 (single isomer, unassigned) [Example 556, (S) or (R)-N′-((1,2,3,5,6,7-hexahydro-s-indacen-4-yl)carbamoyl)-2-(2-hydroxypropan-2-yl)thiazole-4-sulfonimidamide]
IC50 [1]: 5000 to 30000 nM

SMILES: Cc1oc(S(N)(=O)=NC(=O)Nc2c3c(cc4c2CCC4)CCC3)cc1C(C)(C)O (single isomer, unassigned) [Example 3]
IC50 [8]: 200 to 1000 nM

SMILES: CN(C)S(=O)(=NC(=O)Nc1c2c(cc3c1CCC3)CCC2)c1cc(C(C)(C)O)cs1 (single isomer, unassigned) [Example 357, (R) or (S)-N′-((1,2,3,5,6,7-hexahydro-s-indacen-4-yl)-carbamoyl)-4-(2-hydroxy-propan-2-yl)-N,N-dimeth-ylthiophene-2-sulfonimid-amide]
IC50 [5]: 5000 to 30000 nM

SMILES: CN1CCC[C@@H](c2ccc([S@](N)(=O)=NC(=O)Nc3c4c(cc5c3CC5)CCC4)c(F)c2)C1 [Compound 911a]
IC50 [2]: > 30000 nM

SMILES: CCc1ccc2cn(C)nc2c1NC(=O)N=S(N)(=O)c1ncc(C(C)(C)O)s1 (single isomer, unassigned) [Example 330, (R) or (S)-N′-((6-ethyl-2-methyl-2H-indazol-7-yl)-carbamoyl)-5-(2-hydroxy-propan-2-yl)thiazole-2-sulfonimidamide]
IC50 [5]: > 30000 nM

SMILES: CC(C)(O)c1nc(S(N)(=O)=NC(=O)Nc2c3c(cc4c2CCC4)CCC3)cs1 (centres unmarked) [Example 440, N-((1,2,3,5,6,7-hexahydro-s-indacen-4-yl)carbamoyl)-2-(2-hydroxypropan-2-yl)thiazole-4-sulfonimidamide]
IC50 [3]: 200 to 1000 nM

SMILES: CC(C)(O)c1csc(S(N)(=O)=NC(=O)Nc2c3c(c(C#N)c4c2CCC4)CCC3)n1 (centres unmarked) [Example 499, N′-((8-Cyano-1,2,3,5,6,7-hexahydro-s-indacen-4-yl)carbamoyl)-4-(2-hydroxypropan-2-yl)thiazole-2-sulfonimidamide]
IC50 [3]: 40 to 200 nM

Other lines, results leading:

IC50 [2]: > 30000 nM
SMILES: CC(C)(O)c1ncc(S(N)(=O)=NC(=O)Nc2cc3c(c4c2CCC4=O)CCC3)s1 (single isomer, unassigned) [Example 564, (S) or (R)-2-(2-hydroxypropan-2-yl)-N′-((1-oxo-1,2,3,6,7,8-hexahydro-as-indacen-4-yl)carbamoyl) thiazole-5-sulfonimidamide]

IC50 [4]: > 30000 nM
SMILES: NS(=O)(=NC(=O)Nc1c2c(cc3c1CCC3)CCC2)c1ccccc1 (single isomer, unassigned) [Example 613, (S) or (R)-N′-((1,2,3,5,6,7-hexahydro-s-indacen-4-yl)carbamoyl) benzenesulfonimidamide]

IC50 [6]: 200 to 1000 nM
SMILES: CNC1CCc2cc(S(N)(=O)=NC(=O)Nc3c4c(cc5c3CCC5)CCC4)sc2C1 (centres unmarked) [Example 778, N′-((1,2,3,5,6,7-hexahydro-s-indacen-4-yl)carbamoyl)-6-(methylamino)-4,5,6,7-tetrahydrobenzo[b]thiophene-2-sulfonimidamide]

IC50 [1]: 1000 to 5000 nM
SMILES: CC(C)(O)c1cnc(S(N)(=O)=NC(=O)Nc2c3c(cc4c2C(O)CC4)CCC3)s1 (single isomer, unassigned) [Example 651, (R,S) or (R,R)-N′-((3-hydroxy-1,2,3,5,6,7-hexahydro-s-indacen-4-yl)carbamoyl)-5-(2-hydroxypropan-2-yl)thiazole-2-sulfonimidamide]

IC50 [1]: 1000 to 5000 nM
SMILES: CN(C)[C@H](c1ccc([S@](N)(=O)=NC(=O)Nc2c3c(cc4c2CCC4)CCC3)cc1)C(F)(F)F (single isomer, unassigned) [Example 668, (R,R) or (S,R)-4-(1-(dimethylamino)-2,2,2-trifluoroethyl)-N′-((1,2,3,5,6,7-hexahydro-s-indacen-4-yl)carbamoyl) benzenesulfonimidamide]

IC50 [3]: 200 to 1000 nM
SMILES: COc1ccc(Cn2nc(S(N)(=O)=NC(=O)Nc3c4c(cc5c3CCC5)CCC4)cc2C(C)(C)O)cc1 (centres unmarked) [Example 682, N′-((1,2,3,5,6,7-hexahydro-s-indacen-4-yl)carbamoyl)-5-(2-hydroxypropan-2-yl)-1-(4-methoxybenzyl)-1H-pyrazole-3-sulfonimidamide]

IC50 [7]: 200 to 1000 nM
SMILES: CC(C)(O)c1ccnc(S(N)(=O)=NC(=O)Nc2c3c(c(C#N)c4c2CCC4)CCC3)c1 (single isomer, unassigned) [Example 827, (R) or (S)-N′-((8-cyano-1,2,3,5,6,7-hexahydro-s-indacen-4-yl)carbamoyl)-4-(2-hydroxypropan-2-yl)pyridine-2-sulfonimidamide]

IC50 [3]: 40 to 200 nM
SMILES: CNCc1cc(F)c(S(N)(=O)=NC(=O)Nc2c3c(cc4c2CC4)CCC3)s1 (centres unmarked) [Example 669, 3-Fluoro-5-((methylamino)methyl)-N′-((2,4,5,6-tetrahydro-1H-cyclobuta[f]inden-3-yl)carbamoyl)thiophene-2-sulfonimidamide]

IC50 [7]: 200 to 1000 nM
SMILES: NS(=O)(=NC(=O)Nc1c2c(cc3c1CCC3)CCC2)c1ccc(C2CCN2)cc1 (centres unmarked) [Example 863, (S/R, R)-4-(azetidin-2-yl)-N′-((1,2,3,5,6,7-hexahydro-s-indacen-4-yl)carbamoyl)benzenesulfonimidamide]

IC50 [7]: 5000 to 30000 nM
SMILES: C[C@@](O)(CO)c1ncc(S(N)(=O)=NC(=O)Nc2c3c(cc4c2C(=O)CC4)CCC3)s1 (single isomer, unassigned) [Example 820, (S) or (R)-2-((R)-1,2-dihydroxypropan-2-yl)-N′-((3-oxo-1,2,3,5,6,7-hexahydro-s-indacen-4-yl)carbamoyl)thiazole-5-sulfonimidamide]

IC50 [4]: > 30000 nM
SMILES: N[S@](=O)(=NC(=O)Nc1c2c(cc3c1CCC3)CCC2)c1ccc(OC(F)F)cc1 (single isomer, unassigned) [Example 577, (S) or (R)-4-(difluoromethoxy)-N′-((1,2,3,5,6,7-hexahydro-s-indacen-4-yl)carbamoyl) benzenesulfonimidamide]

IC50 [7]: 40 to 200 nM
SMILES: C[C@@](O)(CO)c1nc(CO)c(S(N)(=O)=NC(=O)Nc2c3c(cc4c2CCC4)CCC3)s1 (stereo partly drawn) [Example 754, 2-((R)-1,2-dihydroxypropan-2-yl)-N′-((1,2,3,5,6,7-hexahydro-s-indacen-4-yl)carbamoyl)-4-(hydroxymethyl)thiazole-5-sulfommidamide]

IC50 [7]: 200 to 1000 nM
SMILES: NS(=O)(=NC(=O)Nc1c2c(cc3c1CCC3)CCC2)c1ccc([C@H]2CCCN2)s1 (single isomer, unassigned) [Example 823, (R) or (S) -N′-((1,2,3,5,6,7-hexahydro-s-indacen-4-yl)carbamoyl)-5-((R)-pyriolidin-2-yl)thiophene-2-sulfonimidamide]

IC50 [6]: 40 to 200 nM
SMILES: CC(C)(CO)c1ncc(S(N)(=O)=NC(=O)Nc2c3c(c(C#N)c4c2CCC4)CCC3)s1 (centres unmarked) [Example 772, N′-((8-cyano-1,2,3,5,6,7-hexahydro-s-indacen-4-yl)carbamoyl)-2-(1-hydroxy-2-methylpropan-2-yl)thiazole-5-sulfonimidamide]

— patent US20230051589A1, “COMPOUNDS AND COMPOSITIONS FOR TREATING CONDITIONS ASSOCIATED WITH NLRP ACTIVITY” (Novartis AG, priority 2018, published 2023)
